According to patent US10167262B2, “Herbicidal substituted 3-arylpyrazoles” (FMC CORPORATION, priority 2014, dated 2019):

The compounds below were run on barnyardgrass (Echinochloa crus-galli) (assay: Test A pre-/postemergence greenhouse herbicide test, visual injury rating 0-100). Details: Postemergence, 1000 g ai/ha.
Format: in vivo
From the text: (§1) Seeds of plant species selected from barnyardgrass (Echinochloa crus-galli), large (Lg) crabgrass (Digitaria sanguinalis), giant foxtail (Setaria faberii), morningglory (Ipomoea spp.), pigweed (Amaranthus retroflexus), velvetleaf (Abutilon theophrasti), wheat (Triticum aestivum), and corn (Zea mays) were planted into a blend of loam soil and sand and treated preemergence with a directed soil spray using test chemicals formulated in a non-phytotoxic solvent mixture which included a surfactant. At the same time these species were also treated with postemergence applications of test chemicals formulated in the same manner. Plants ranged in height from 2 to 10 cm and were in the one- to two-leaf stage for the postemergence treatment. Treated plants and untreated controls were maintained in a greenhouse for approximately 10 days, after which time all treated plants were compared to untreated controls and visually evaluated for injury. Plant response ratings, summarized in Table A, are based on a 0 to 100 scale where 0 is no effect and 100 is complete control. A dash (-) response means no test result.

| Structure (SMILES) | Plant response rating (0 to 100 scale), Barnyardgrass |
| --- | --- |
| CON=C(c1ccccc1)c1c[nH]nc1-c1cc(Br)cc(Br)c1 [Compound 29] | 0 |

Same assay, conditions: Preemergence, 1000 g ai/ha

| Structure (SMILES) | Plant response rating (0 to 100 scale), Barnyardgrass |
| --- | --- |
| CON=C(c1ccccc1)c1c[nH]nc1-c1cc(Br)cc(Br)c1 [Compound 29] | 0 |

These compounds were tested on corn (Zea mays) in the same assay as above. Details: Postemergence, 1000 g ai/ha.
Format: in vivo
From the text: as §1

| Structure (SMILES) | Plant response rating (0 to 100 scale), Corn |
| --- | --- |
| CON=C(c1ccccc1)c1c[nH]nc1-c1cc(Br)cc(Br)c1 [Compound 29] | 0 |

Same assay, conditions: Preemergence, 1000 g ai/ha

| Structure (SMILES) | Plant response rating (0 to 100 scale), Corn |
| --- | --- |
| CON=C(c1ccccc1)c1c[nH]nc1-c1cc(Br)cc(Br)c1 [Compound 29] | 0 |

The compounds below were run on giant foxtail (Setaria faberii) in the same assay as above. Details: Postemergence, 1000 g ai/ha.
Format: in vivo
From the text: as §1

| Structure (SMILES) | Plant response rating (0 to 100 scale), Foxtail, Giant |
| --- | --- |
| CON=C(c1ccccc1)c1c[nH]nc1-c1cc(Br)cc(Br)c1 [Compound 29] | 10 |

Same assay, conditions: Preemergence, 1000 g ai/ha

| Structure (SMILES) | Plant response rating (0 to 100 scale), Foxtail, Giant |
| --- | --- |
| CON=C(c1ccccc1)c1c[nH]nc1-c1cc(Br)cc(Br)c1 [Compound 29] | 0 |

The compounds below were run on large (Lg) crabgrass (Digitaria sanguinalis) in the same assay as above. Details: Postemergence, 1000 g ai/ha.
Format: in vivo
From the text: as §1

| Structure (SMILES) | Plant response rating (0 to 100 scale), Crabgrass, Large |
| --- | --- |
| CON=C(c1ccccc1)c1c[nH]nc1-c1cc(Br)cc(Br)c1 [Compound 29] | 0 |

Same assay, conditions: Preemergence, 1000 g ai/ha

| Structure (SMILES) | Plant response rating (0 to 100 scale), Crabgrass, Large |
| --- | --- |
| CON=C(c1ccccc1)c1c[nH]nc1-c1cc(Br)cc(Br)c1 [Compound 29] | 0 |

These compounds were tested on morningglory (Ipomoea spp.) in the same assay as above. Details: Postemergence, 1000 g ai/ha.
Format: in vivo
From the text: as §1

| Structure (SMILES) | Plant response rating (0 to 100 scale), Morningglory |
| --- | --- |
| CON=C(c1ccccc1)c1c[nH]nc1-c1cc(Br)cc(Br)c1 [Compound 29] | 0 |

Same assay, conditions: Preemergence, 1000 g ai/ha

| Structure (SMILES) | Plant response rating (0 to 100 scale), Morningglory |
| --- | --- |
| CON=C(c1ccccc1)c1c[nH]nc1-c1cc(Br)cc(Br)c1 [Compound 29] | 0 |

Each compound was assayed on pigweed (Amaranthus retroflexus) in the same assay as above. Details: Postemergence, 1000 g ai/ha.
Format: in vivo
From the text: as §1

| Structure (SMILES) | Plant response rating (0 to 100 scale), Pigweed |
| --- | --- |
| CON=C(c1ccccc1)c1c[nH]nc1-c1cc(Br)cc(Br)c1 [Compound 29] | 90 |

Same assay, conditions: Preemergence, 1000 g ai/ha

| Structure (SMILES) | Plant response rating (0 to 100 scale), Pigweed |
| --- | --- |
| CON=C(c1ccccc1)c1c[nH]nc1-c1cc(Br)cc(Br)c1 [Compound 29] | 40 |

Each compound was assayed on velvetleaf (Abutilon theophrasti) in the same assay as above. Details: Postemergence, 1000 g ai/ha.
Format: in vivo
From the text: as §1

| Structure (SMILES) | Plant response rating (0 to 100 scale), Velvetleaf |
| --- | --- |
| CON=C(c1ccccc1)c1c[nH]nc1-c1cc(Br)cc(Br)c1 [Compound 29] | 90 |

Same assay, conditions: Preemergence, 1000 g ai/ha

| Structure (SMILES) | Plant response rating (0 to 100 scale), Velvetleaf |
| --- | --- |
| CON=C(c1ccccc1)c1c[nH]nc1-c1cc(Br)cc(Br)c1 [Compound 29] | 70 |

The compounds below were run on wheat (Triticum aestivum) in the same assay as above. Details: Postemergence, 1000 g ai/ha.
Format: in vivo
From the text: as §1

| Structure (SMILES) | Plant response rating (0 to 100 scale), Wheat |
| --- | --- |
| CON=C(c1ccccc1)c1c[nH]nc1-c1cc(Br)cc(Br)c1 [Compound 29] | 0 |

Same assay, conditions: Preemergence, 1000 g ai/ha

| Structure (SMILES) | Plant response rating (0 to 100 scale), Wheat |
| --- | --- |
| CON=C(c1ccccc1)c1c[nH]nc1-c1cc(Br)cc(Br)c1 [Compound 29] | 0 |
